Data taken from US11730792B2, “Coversin (OmCI) for the treatment of autoimmune blistering diseases: bullous pemphigoid (BP) and epidermolysis bullosa acquisita (EBA)” (VOLUTION IMMUNO PHARMACEUTICALS SA, priority 2017, dated 2023).
“Also recorded” adds a separate entry of the source.

How the values were obtained:
Experimental EBA [1] = details: ref [44], cited from earlier work
experimental EBA [2] = assay: Experimental EBA, prophylactic PAS-L-Coversin versus Coversin (Example 4); type: in vivo, mice; details: 2.5 mg/kg Coversin; for Clinical score of experimental EBA: prophylactic
Description: (§1) Antibody transfer EBA was induced using a modified version of the protocol described by Sitaru et al., 2005 [43]. Five mice were tested in each treatment group. […] Mice were injected subcutaneously twice daily with three varying doses of Coversin starting […] before the first injection of anti-Col7 IgG (day −2). This application was continued throughout the experiment until its last day on day 11. In the control groups the mice received only the vehicle subcutaneously, or 20 mg/kg methylprednisolone once daily.
(§2) Starting on day 4, the extent of skin lesions was scored in each individual mouse every other day. […] The percentage of the total body surface affected by skin lesions (ABSA) was calculated.
In a further experiment, the effect of PAS-L-Coversin was assessed. Mice were treated with 0.1 mg/kg, 10 mg/kg, 1 mg/kg PAS-L-Coversin, or 2.5 mg/kg Coversin, with the experiment being carried out as described above. […] The sequence of the L-Coversin sequence is a variant of the mature Coversin sequence (SEQ ID NO: 4) in which the following residues have been modified: Ala44 to Asn, Met116 to Gln, Leu117 to Ser, Gly121 to Ala, Leu122 to Asp, Glu123 to Ala and Asp149 to Gly, (referred to as variant 2, sequence is dsesdctgse pvdafqafse gkeayvlvrs tdpkardclk gepNgekqdn tlpvmmtfkn gtdwastdwt ftldgakvta tlgnitqnre vvydsqshhc hvdkvekevp dyemwQSdag ADAveveccr qkleelasgr nqmyphlkGc (SEQ ID NO:23), where the changes relative to the native Coversin sequence of SEQ ID NO:4 are in capitals). Because of the higher molecule weight of the PAS-L-Cov, 10 mg/kg PAS-L-Cov corresponds to 2.5 mg/kg Coversin. In the first experiment (FIG. 6A) the 10 mg/kg dose but not 1 mg/kg or 0.1 mg/kg dose of PAS-L-Coversin reduced ABSA compared to control. In the second experiment (FIG. 6B), the 10 mg/kg dose and the 1 mg/kg but not the 0.1 mg/kg dose of PAS-L-Coversin reduced ABSA compared to control.

C5 [3] = target: T1, C5 (Rattus norvegicus, UniProt P08650); assay: Prevention of C5 cleavage by C5 convertase in rat serum; type: biochemical
T1 construct: from tissue; host or cells: rat serum
From the text: (§3) Coversin was isolated from the salivary glands of the tick Ornithodoros moubata. Coversin is an outlying member of the lipocalin family and is the first lipocalin family member shown to inhibit complement activation. Coversin inhibits the classical, alternative and lectin complement pathways by binding to C5 and preventing its cleavage by C5 convertase into C5a and C5b, thus inhibiting both the production of C5a, which is an active (e.g. proinflammatory) peptide, and the formation of the MAC.

[4] = tested on: Antibody transfer EBA-like skin inflammation; assay: Passive EBA mouse model, Coversin administered therapeutically from day 5 (Example 2); type: in vivo, C57Bl/6J WT mice; details: for Two-way ANOVA, vehicle control versus Coversin: all doses used, N=5 per group
Description: The study included the following experimental groups, with 5 mice in each experimental group: • 1. Vehicle (PBS) control group • 2. 125 μg/kg Coversin 2× daily s.c. • 3. 2500 μg/kg Coversin 2× daily s.c.
Antibody transfer EBA-like skin inflammation was induced, as described in Sezin et al.
The treatment of mice with Coversin started on Day 5 of the experiment (Day 0=day of first administration of anti-COL7 antibody). Afterwards, mice were injected 12 hourly s.c. in the scapular region with Coversin or vehicle control until the end of the experiment.
Disease severity was scored. […] The percentage of the absolute body surface affected by skin lesions (ABSA) was calculated. To score the disease, the mice were anesthetized every other day with a mixture of ketamine/xylazine administered i.p. starting day 4 of the experiment.
Two independent experiments were conducted according to this protocol.
Prior to the beginning of the experiment mean weight of the mice was calculated and 2.5 mg/kg and 0.125 mg/kg of the drug were prepared freshly to a final volume of 100 μl in PBS pH 7.2. The drug was prepared freshly, twice daily, 30 minutes before the final injection into the mice. Thereafter, based on the mean weight of the mice the drug was adjusted with PBS pH 7.2 to a concentration appropriate to provide the required mg/kg dose in a final volume of 100 μl. Drug was prepared freshly twice daily, 30 minutes before the final application into the animals. As a vehicle control 100 μl of PBS pH 7.2 was injected s.c into the mice.
ABSA between treatment groups was evaluated by two-way ANOVA conducted using GraphPad Prism 7.

experimental EBA [5] = assay: Antibody transfer EBA model, Coversin administered prophylactically (Example 1); type: in vivo, mice; parameters: Two-way ANOVA, vehicle control versus Coversin: dose or concentration left out as unconfirmed; details: for Two-way ANOVA, vehicle control versus Coversin: combined experiments 1 and 2; for percentage ABSA: prophylactic
Description: as §1
To generate antibodies directed to murine type VII collagen (“anti-COL7”), New Zealand White rabbits were immunized with 200 μg of a protein mixture containing three different recombinant proteins (“Col7A, B, and C”) derived from the non-collagenous 1 (NC1) domain of collagen VII together with incomplete Freund's adjuvant. IgGs were isolated from the serum of immunized rabbits by use of protein G, and afterwards IgGs were affinity-purified with his-Col7 to specifically obtain rabbit anti-Col7 IgG. Antibodies were quality checked by determining the titer and the potency in the cryosection assay.
as §2
Two independent experiments were conducted.

C5 [6] = target: T2, C5 (Mus musculus, UniProt P06684); assay: Prevention of C5 cleavage by C5 convertase in mouse serum; type: biochemical
T2 construct: from tissue; host or cells: mouse serum
From the text: as §3

C5 [7] = target: T3, C5 (Homo sapiens, UniProt P01031); details: surface plasmon resonance, ref [31]; cited from earlier work
Target sequence in this assay (P01031 19-1676): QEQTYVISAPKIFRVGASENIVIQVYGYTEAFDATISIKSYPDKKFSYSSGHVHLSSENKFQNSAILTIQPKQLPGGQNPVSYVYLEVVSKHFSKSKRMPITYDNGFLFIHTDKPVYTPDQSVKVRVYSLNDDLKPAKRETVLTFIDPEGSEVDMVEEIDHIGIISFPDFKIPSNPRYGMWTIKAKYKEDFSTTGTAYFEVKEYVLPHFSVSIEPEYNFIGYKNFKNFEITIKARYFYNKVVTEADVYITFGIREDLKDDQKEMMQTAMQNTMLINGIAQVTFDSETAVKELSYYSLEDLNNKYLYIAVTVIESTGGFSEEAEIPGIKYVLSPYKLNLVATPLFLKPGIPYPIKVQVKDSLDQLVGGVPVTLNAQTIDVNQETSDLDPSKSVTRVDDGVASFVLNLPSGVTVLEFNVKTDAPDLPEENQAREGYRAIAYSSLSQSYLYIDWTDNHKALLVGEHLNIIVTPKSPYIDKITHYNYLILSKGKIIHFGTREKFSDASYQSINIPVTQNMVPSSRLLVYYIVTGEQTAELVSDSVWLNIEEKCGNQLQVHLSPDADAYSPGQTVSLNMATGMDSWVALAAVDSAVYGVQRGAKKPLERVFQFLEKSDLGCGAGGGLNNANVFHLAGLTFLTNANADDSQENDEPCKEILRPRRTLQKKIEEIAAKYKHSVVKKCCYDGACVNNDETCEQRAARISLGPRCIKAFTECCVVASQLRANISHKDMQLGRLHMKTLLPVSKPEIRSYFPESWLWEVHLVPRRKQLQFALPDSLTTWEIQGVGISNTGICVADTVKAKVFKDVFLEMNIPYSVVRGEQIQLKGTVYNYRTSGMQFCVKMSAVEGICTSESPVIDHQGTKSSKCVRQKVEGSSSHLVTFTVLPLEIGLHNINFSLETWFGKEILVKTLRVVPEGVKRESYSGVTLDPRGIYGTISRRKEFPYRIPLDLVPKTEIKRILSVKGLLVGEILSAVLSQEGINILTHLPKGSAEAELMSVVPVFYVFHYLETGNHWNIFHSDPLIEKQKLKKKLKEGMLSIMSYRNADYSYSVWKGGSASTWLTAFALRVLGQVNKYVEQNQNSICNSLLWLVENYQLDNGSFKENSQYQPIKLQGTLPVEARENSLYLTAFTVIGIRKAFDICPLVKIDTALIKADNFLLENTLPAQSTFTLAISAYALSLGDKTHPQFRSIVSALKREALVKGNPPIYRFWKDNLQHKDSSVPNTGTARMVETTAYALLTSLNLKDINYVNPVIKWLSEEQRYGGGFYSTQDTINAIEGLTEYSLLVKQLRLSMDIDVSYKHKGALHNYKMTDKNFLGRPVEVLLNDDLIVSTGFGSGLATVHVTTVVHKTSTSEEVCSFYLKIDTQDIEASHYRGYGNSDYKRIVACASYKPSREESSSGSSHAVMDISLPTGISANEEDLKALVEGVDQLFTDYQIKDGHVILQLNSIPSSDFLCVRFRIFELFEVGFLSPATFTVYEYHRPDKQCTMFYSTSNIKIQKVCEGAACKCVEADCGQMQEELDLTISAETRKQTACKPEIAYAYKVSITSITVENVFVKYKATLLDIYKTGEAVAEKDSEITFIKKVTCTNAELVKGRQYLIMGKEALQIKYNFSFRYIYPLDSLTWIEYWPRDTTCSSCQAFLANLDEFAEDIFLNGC

C5 [8] = target: T3, C5; assay: Prevention of C5 cleavage by C5 convertase in human serum; type: biochemical; parameters: from tissue; host or cells: human serum
From the text: as §3
Target sequence in this assay (P01031 678-1676 limits assumed): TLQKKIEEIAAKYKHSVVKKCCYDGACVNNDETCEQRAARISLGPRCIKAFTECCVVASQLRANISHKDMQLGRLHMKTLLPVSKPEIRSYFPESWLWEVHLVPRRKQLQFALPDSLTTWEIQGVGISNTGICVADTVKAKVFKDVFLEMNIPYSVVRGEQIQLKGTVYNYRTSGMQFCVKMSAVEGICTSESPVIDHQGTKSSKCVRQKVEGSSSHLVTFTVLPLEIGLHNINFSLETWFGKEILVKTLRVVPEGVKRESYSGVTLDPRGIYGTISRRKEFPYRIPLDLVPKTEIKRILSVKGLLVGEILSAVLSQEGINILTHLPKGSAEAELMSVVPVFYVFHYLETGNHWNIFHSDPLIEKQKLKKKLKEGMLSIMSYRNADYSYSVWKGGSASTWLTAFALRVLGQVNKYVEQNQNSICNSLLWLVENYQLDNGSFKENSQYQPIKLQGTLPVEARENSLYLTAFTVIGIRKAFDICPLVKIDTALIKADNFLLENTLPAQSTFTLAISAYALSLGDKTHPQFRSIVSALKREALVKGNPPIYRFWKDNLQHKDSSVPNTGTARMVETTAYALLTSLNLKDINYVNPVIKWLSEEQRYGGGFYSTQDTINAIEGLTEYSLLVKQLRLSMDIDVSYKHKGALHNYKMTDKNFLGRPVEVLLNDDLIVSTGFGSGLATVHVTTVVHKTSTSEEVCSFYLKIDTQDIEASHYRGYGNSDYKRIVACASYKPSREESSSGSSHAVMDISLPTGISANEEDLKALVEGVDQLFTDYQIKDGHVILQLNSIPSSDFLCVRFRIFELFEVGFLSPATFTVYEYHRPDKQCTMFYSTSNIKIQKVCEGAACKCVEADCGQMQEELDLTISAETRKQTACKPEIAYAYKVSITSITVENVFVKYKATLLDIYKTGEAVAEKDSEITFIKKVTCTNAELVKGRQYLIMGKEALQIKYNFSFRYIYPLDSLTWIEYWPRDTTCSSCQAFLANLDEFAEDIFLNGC
Target sequence in this assay (P01031 19-673 partner limits assumed): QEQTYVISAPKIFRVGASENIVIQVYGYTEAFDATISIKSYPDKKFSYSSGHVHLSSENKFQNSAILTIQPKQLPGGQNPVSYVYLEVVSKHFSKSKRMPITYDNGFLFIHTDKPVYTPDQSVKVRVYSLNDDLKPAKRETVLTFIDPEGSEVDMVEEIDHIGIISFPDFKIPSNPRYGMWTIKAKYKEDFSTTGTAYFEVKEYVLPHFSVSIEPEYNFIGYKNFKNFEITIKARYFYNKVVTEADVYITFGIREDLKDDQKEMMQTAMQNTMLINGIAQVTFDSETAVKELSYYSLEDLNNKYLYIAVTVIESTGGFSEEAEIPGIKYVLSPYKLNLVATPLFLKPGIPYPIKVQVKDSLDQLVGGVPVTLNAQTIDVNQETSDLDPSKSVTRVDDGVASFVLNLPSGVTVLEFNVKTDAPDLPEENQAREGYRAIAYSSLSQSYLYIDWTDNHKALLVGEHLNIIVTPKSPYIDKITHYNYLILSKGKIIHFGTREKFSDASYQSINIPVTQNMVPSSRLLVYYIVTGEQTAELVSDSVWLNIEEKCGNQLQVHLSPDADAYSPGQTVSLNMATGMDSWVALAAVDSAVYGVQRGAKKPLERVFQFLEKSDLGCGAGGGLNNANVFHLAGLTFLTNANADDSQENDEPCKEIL

[9] = target: T4, Ornithodoros moubata Coversin (EV576, OmCI), amino acids 19 to 168 of SEQ ID NO: 2 (SEQ ID NO: 4) (Ornithodoros moubata, UniProt Q5YD59); assay: LTB4 binding to Coversin by fluorescence titration
T4 sequence (Q5YD59 19-168): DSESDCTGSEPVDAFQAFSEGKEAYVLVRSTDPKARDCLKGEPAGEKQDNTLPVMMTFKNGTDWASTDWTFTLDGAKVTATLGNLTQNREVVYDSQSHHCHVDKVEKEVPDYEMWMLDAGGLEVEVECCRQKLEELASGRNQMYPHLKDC
Description: This may be carried out by may be carried out as follows:
Purified 100 nM solutions of Coversin, in 2 mL PBS were applied in a quartz cuvette (10 mm path length; Hellma, Malheim, Germany) equipped with a magnetic stirrer. Temperature was adjusted to 20° C. and, after equilibrium was reached, protein Tyr/Trp fluorescence was excited at 280 nm (slit width: 15 nm). The fluorescence emission was measured at 340 nm (slit width: 16 nm) corresponding to the emission maximum. […] For calculation of the KD value, data was normalized to an initial fluorescence intensity of 100%, the inner filter effect was corrected using a titration of 3 μM N-acetyl-tryptophanamide solution and data was plotted against the corresponding ligand concentration. Then, non-linear least squares regression based on the law of mass action for bimolecular complex formation was used to fit the data with Origin software version 8.5 (OriginLab, Northampton, Mass., USA) using a published formula (Breustedt et al., 2006).

[10] = LTB4 binding of L-Coversin (method not given); details: mutated Coversin sequence (variant 2)
C5 [11] = target: T3, C5; assay: C5 binding of L-Coversin (method not given); details: mutated Coversin sequence (variant 2)
Target sequence in this assay (P01031 19-1676): as the sequence (P01031 19-1676) above

T1 sequence (P08650 19-1681): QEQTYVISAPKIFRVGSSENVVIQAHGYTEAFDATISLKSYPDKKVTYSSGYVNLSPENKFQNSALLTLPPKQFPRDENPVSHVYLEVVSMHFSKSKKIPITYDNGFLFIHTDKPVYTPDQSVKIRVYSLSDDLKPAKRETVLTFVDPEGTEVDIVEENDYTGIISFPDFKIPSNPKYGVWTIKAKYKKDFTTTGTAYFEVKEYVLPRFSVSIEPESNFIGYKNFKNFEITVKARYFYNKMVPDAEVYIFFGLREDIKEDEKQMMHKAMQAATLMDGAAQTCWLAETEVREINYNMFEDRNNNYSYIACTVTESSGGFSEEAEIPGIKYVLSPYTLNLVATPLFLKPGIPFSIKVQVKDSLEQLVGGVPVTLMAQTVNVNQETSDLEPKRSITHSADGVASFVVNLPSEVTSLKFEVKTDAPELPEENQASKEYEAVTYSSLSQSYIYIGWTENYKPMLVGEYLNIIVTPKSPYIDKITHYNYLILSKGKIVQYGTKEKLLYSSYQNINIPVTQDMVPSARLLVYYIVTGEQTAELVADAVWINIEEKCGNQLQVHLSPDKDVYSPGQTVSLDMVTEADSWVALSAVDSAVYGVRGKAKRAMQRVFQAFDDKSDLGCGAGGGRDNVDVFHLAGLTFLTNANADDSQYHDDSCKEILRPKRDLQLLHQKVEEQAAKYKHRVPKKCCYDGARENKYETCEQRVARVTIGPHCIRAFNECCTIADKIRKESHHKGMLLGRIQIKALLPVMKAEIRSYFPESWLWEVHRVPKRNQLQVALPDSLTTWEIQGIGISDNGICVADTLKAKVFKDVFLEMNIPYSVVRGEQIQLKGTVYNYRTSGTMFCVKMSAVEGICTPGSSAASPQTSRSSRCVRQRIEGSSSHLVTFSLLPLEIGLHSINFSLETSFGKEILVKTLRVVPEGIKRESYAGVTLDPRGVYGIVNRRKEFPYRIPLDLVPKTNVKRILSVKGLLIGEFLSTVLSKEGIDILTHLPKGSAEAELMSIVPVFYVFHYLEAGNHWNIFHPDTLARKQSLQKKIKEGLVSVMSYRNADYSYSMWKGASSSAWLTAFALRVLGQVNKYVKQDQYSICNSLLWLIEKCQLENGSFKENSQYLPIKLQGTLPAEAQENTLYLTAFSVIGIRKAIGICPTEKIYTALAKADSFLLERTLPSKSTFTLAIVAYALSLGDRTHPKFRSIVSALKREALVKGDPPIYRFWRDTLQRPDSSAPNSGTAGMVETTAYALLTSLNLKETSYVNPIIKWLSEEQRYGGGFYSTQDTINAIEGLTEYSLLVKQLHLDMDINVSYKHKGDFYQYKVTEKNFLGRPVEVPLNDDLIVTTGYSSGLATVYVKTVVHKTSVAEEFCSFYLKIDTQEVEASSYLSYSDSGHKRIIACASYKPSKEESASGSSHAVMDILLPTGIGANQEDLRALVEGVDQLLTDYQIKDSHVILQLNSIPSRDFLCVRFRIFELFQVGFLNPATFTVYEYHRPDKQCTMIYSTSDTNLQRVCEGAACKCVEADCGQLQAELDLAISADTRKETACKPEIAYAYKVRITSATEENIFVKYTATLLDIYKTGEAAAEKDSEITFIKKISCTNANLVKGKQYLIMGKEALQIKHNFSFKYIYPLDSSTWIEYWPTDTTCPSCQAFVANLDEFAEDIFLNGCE

Molecule: CC(c1cc2ccccc2s1)N(O)C(N)=O (stereo not shown) [Zileuton, N-[1-(1-benzothien-2-yl)ethyl]-N-hydroxyurea]
- clinical score day 7 (Experimental EBA [1]; 0.6-0.8 mg/mouse/day in drinking water, female mice, control group 9.2±0.7): 5.9±0.5 % of affected surface body area
- disease severity as compared to control group (Experimental EBA [1]; from day 7 until end-point, 0.6-0.8 mg/mouse/day): significantly reduced disease severity

Molecule: Coversin: tick Ornithodoros moubata protein, amino acids 19 to 168 of SEQ ID NO: 2 (SEQ ID NO: 4); binds C5 and LTB4
- Clinical score of experimental EBA (experimental EBA [2]; Example 4, experiment 1 (FIG. 6A)): ameliorated disease
- Clinical score of experimental EBA (experimental EBA [2]; Example 4, experiment 2 (FIG. 6B)): ameliorated disease
- statistical significance of effect on ABSA (experimental EBA [2]; second experiment (FIG. 6B)): statistically significant effect
- IC50, binding C5 and preventing its cleavage by C5 convertase (C5 [3]): approximately 0.02 mg/ml
- Two-way ANOVA, vehicle control versus Coversin ([4]; Experiment 1 (FIG. 7), females): significant differences
- ABSA ([4]; Experiment 1, 2.5 mg/kg Coversin, vehicle about 7%): effective in reducing ABSA
- skin inflammation measured by absolute body surface area affected (ABSA), dose dependence ([4]; Experiment 1, females, 125 and 2500 μg/kg 2× daily s.c. from day 5): dose-dependently ameliorated skin inflammation
- Two-way ANOVA, vehicle control versus Coversin ([4]; Experiment 2 (FIG. 8), males): significant differences
- skin inflammation, dose dependence ([4]; Experiment 2 (FIG. 8), males, 125 and 2500 μg/kg 2× daily s.c. from day 5): dose-dependently ameliorated skin inflammation
- skin inflammation measured by ABSA ([4]; Experiment 2, 2.5 mg/kg Coversin, vehicle peaked at about 4%): significantly (P<0.01) ameliorated skin inflammation
- deaths during treatment ([4]; the two experiments, up to day 12): no deaths
- Two-way ANOVA, vehicle control versus Coversin (experimental EBA [5]; dose 250): statistically significant difference
- Two-way ANOVA, vehicle control versus Coversin (experimental EBA [5]; dose 2500): statistically significant difference
- Clinical score of experimental EBA (experimental EBA [5]; combined results of experiments 1 and 2 (FIG. 5), all doses): ameliorated disease
- reduction of percentage ABSA compared with previously tested agents (Zileuton, methylprednisolone) (experimental EBA [5]; comparison with similar earlier experiments, particularly at 2.5 mg/kg and 0.25 mg/kg): to a greater degree; also recorded: greater effect
- Clinical score of experimental EBA (experimental EBA [5]; experiment 1 (FIG. 3), all doses of Coversin, vs vehicle control group and methylprednisolone group): ameliorated disease
- Clinical score of experimental EBA (experimental EBA [5]; experiment 2 (FIG. 4), all doses of Coversin, vs vehicle control group and methylprednisolone group): ameliorated disease
- significance of effect compared to vehicle control group (experimental EBA [5]; experiment 2 (FIG. 4), only at the 2.5 mg/kg dose): significant effect
- difference in ABSA between vehicle and treated (experimental EBA [5]; first experiment, 0.25 mg/kg dose, P 0.0023 by two tailed t-test): 63%
- mean ABSA score (SD) (experimental EBA [5]; first experiment, 0.25 mg/kg dose, day 10, vehicle 6.23+1.1): 2.65+0.4
- percentage ABSA (experimental EBA [5]; first experiment, Coversin 25 μg/kg s.c. twice daily): reduced
- percentage ABSA (experimental EBA [5]; first experiment, Coversin 250 μg/kg s.c. twice daily): further reduced
- percentage ABSA (experimental EBA [5]; first experiment, Coversin 2500 μg/kg s.c. twice daily): further reduced
- IC50, binding C5 and preventing its cleavage by C5 convertase (C5 [6]): approximately 0.02 mg/ml
- Kd (C5 [7]): 1 nM
- IC50, binding C5 and preventing its cleavage by C5 convertase (C5 [8]): approximately 0.02 mg/ml

Molecule: CCCCC/C=C\C[C@@H](O)/C=C/C=C/C=C\[C@@H](O)CCCC(=O)O [LTB4, Leukotriene B4]
- Kd [9]: 0.2 to 0.3 nM

B1: L-Coversin: SEQ ID NO: 23; SEQ ID NO: 4 with Ala44Asn, Met116Gln, Leu117Ser, Gly121Ala, Leu122Asp, Glu123Ala, Asp149Gly (protein)
chain: DSESDCTGSEPVDAFQAFSEGKEAYVLVRSTDPKARDCLKGEPNGEKQDNTLPVMMTFKNGTDWASTDWTFTLDGAKVTATLGNLTQNREVVYDSQSHHCHVDKVEKEVPDYEMWQSDAGADAVEVECCRQKLEELASGRNQMYPHLKGC
modifications: Coversin variant 2
- LTB4 binding [10]: binds LTB4
- C5 binding (C5 [11]): does not bind C5
